Holding throughout (assay type): binding
What all share (conditions): read-out: % released into dialysate

Data set [1] deals with T1, human serum albumin (HSA) (Homo sapiens, UniProt P02768).
T1 construct: gene ALB
Put plainly: equilibrium dialysis with […]-ligand; Trp-214 fluorescence quenching.

Data set [2] concerns the target T2, bovine serum albumin (BSA) (Bos taurus, UniProt P02769).
T2 construct: gene ALB
Kind of data set: equilibrium dialysis with […]-ligand. Background: In equilibrium dialysis only unbound substance equilibrates across the membrane.

The target of data set [3] is T2, bovine serum albumin (BSA). Put plainly: equilibrium dialysis with […]-ligand (weak retention).

Structures are written as SMILES.

T2 sequence (P02769 25-607): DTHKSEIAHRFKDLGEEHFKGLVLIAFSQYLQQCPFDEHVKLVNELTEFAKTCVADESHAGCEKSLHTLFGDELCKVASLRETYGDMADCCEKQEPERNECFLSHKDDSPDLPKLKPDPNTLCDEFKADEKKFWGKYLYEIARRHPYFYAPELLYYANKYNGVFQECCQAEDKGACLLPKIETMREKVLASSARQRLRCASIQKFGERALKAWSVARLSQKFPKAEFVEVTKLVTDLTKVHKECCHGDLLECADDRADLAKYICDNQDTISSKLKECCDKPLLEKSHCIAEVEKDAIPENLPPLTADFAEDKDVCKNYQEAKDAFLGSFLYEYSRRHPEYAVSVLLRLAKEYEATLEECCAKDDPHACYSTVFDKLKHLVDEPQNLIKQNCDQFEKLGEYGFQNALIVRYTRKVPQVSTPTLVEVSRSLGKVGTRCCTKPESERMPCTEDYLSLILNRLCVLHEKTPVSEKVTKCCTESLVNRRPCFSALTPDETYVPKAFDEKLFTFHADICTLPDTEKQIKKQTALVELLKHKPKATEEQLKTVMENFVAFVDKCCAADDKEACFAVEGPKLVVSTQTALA
T1 sequence (P02768 25-609): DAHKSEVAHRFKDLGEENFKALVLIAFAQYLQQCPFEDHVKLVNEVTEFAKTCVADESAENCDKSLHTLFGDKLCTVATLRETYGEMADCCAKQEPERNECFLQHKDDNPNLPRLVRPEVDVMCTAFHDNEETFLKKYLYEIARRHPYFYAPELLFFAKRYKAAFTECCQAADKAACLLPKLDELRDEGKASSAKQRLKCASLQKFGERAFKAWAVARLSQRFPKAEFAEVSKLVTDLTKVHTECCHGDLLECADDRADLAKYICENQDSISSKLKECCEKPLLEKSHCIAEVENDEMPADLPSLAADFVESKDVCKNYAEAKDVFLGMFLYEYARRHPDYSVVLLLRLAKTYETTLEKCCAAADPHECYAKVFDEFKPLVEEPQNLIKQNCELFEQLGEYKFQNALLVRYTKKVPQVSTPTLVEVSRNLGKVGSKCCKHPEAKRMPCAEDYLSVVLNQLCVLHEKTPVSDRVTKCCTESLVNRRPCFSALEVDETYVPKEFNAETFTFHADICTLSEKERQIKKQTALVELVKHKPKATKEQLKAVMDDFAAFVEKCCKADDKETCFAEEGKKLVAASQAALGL

Regarding `CCNC(=S)N/N=C(\c1ccccc1)c1ccccn1` [Bp4eT, 2-benzoylpyridine 4-ethyl-3-thiosemicarbazone], the fraction unbound turned out to be 0.04 ± 0.003 in data set [1] and 0.09 ± 0.003 in data set [2].
Consider `CN(C)C(=S)NN=C(c1ccccn1)c1ccccn1` [Dp44mT, di-2-pyridylketone 4,4-dimethyl-3-thiosemicarbazone], for which the figures for the fraction unbound in data set [1] and in data set [2] were 0.22 ± 0.01 and 0.21 ± 0.005, respectively.
As to `Cc1ncc(CO)c(C=NNC(=O)c2ccncc2)c1O` [PIH, pyridoxal isonicotinoyl hydrazone], the fraction unbound in data set [1] was determined as 0.06 ± 0.003; in data set [3], 0.39 ± 0.003.
